In brackets after ≈: the same amount, converted by molar mass.
Key:
Escherichia coli [1] = test: Compound was evaluated for its antibacterial activity against Escherichia coli BAS849; type: functional
Enterococcus faecium [2] = test: Compound was evaluated for its antibacterial activity against Enterococcus faecium CL4931 (Van A); type: functional
Enterococcus faecalis [3] = test: Compound was evaluated for its antibacterial activity against Enterococcus faecalis CL5244 (Van B); type: functional
[4] = test system: Staphylococcus epidermidis; test: Compound was evaluated for bactericidal activity against […]; type: functional
Escherichia coli [5] = test: Compound was evaluated for inhibition of peptidoglycan synthesis in Escherichia coli using UDP-[14C]-GlcNAc radioligand; type: functional, organism-based
Enterococcus faecium [6] = test: Compound was evaluated for its antibacterial activity against Enterococcus faecium RLA1 strain resistant to ampicillin; type: functional
Enterococcus faecium [7] = test: Compound was evaluated for its antibacterial activity against Enterococcus faecium ATCC 49624; type: functional
Enterococcus faecalis [8] = test: Compound was evaluated for inhibition of peptidoglycan synthesis in Enterococcus faecalis using [14C]lysine radioligand; type: functional, organism-based
[9] = test system: Staphylococcus epidermidis; test: Compound was evaluated for its antibacterial activity against […] ATCC 12228; type: functional
Enterococcus faecalis [10] = test: Compound was evaluated for its antibacterial activity against Enterococcus faecalis CL4877 (Van B); type: functional
Escherichia coli [11] = test: Compound was evaluated for inhibition of peptidoglycan synthesis in Escherichia coli using [14C]-lipid II radioligand; type: functional, organism-based
Staphylococcus aureus [12] = test: Compound was evaluated for its antibacterial activity against Staphylococcus aureus ATCC 29213; type: functional
Staphylococcus aureus [13] = test: Compound was evaluated for bactericidal activity against Staphylococcus aureus; type: functional
Enterococcus faecalis [14] = test: Compound was evaluated for bactericidal activity against Enterococcus faecalis; type: functional; parameters: concentration or dose not given beside the values
Enterococcus faecalis [15] = test: Compound was evaluated for its antibacterial activity against Enterococcus faecalis ATCC 29212; type: functional
[16] = test system: Staphylococcus epidermidis; test: Compound was evaluated for bactericidal activity against Staphylococcus epidermidis; type: functional
[17] = test system: Staphylococcus epidermidis; test: Compound was evaluated for its antibacterial activity against Staphylococcus epidermidis ATCC 12228; type: functional
Enterococcus faecalis [18] = test: Compound was evaluated for inhibition of peptidoglycan synthesis in Enterococcus faecalis using [14C]lysine radioligand; not applicable; type: functional, organism-based

Row | SMILES | MIC (Escherichia coli [1]) | MIC (Enterococcus faecium [2]) | MIC (Enterococcus faecalis [3]) | Survival [4] | IC50 (Escherichia coli [5]) | MIC (Enterococcus faecium [6]) | MIC (Enterococcus faecium [7]) | IC50 (Enterococcus faecalis [8]) | MIC [9] | MIC (Enterococcus faecalis [10]) | IC50 (Escherichia coli [11]) | MIC (Staphylococcus aureus [12]) | Survival (Staphylococcus aureus [13]) | Survival (Enterococcus faecalis [14]) | MIC (Enterococcus faecalis [15]) | Survival [16] | MIC [17] | IC50 (Enterococcus faecalis [18])
1 | CCCCCCCCCCCCO[C@H](COP(=O)(O)OC1OC(C(N)=O)C(O)C(NC(=O)Nc2ccc(Cl)c(C(F)(F)F)c2)C1OC1OC(CO)C(O)C(O)C1NC(=O)c1cccc(C(F)(F)F)c1)C(=O)O (stereo partly specified) | 12.5 µg/mL (≈ 11.5 µM) | 6.25 µg/mL (≈ 5.77 µM) | 3.13 µg/mL (≈ 2.89 µM) | <5e-05% | 9800 nM | 6.25 µg/mL (≈ 5.77 µM) | 6.25 µg/mL (≈ 5.77 µM) | 2500 nM | 6.25 µg/mL (≈ 5.77 µM) | 3.13 µg/mL (≈ 2.89 µM) | 100000 nM | 6.25 µg/mL (≈ 5.77 µM) | <5e-05% | 0.00024% | 6.25 µg/mL (≈ 5.77 µM) |  |  | 
2 | CC(=O)N[C@@H]1[C@H](O[C@H]2[C@@H](O)[C@H](NC(C)=O)[C@H](OC3[C@@H](OP(=O)(O)OC[C@@H](OCCC(C)CCCCC(C)(C)CCC(C)CCC(C)CCCC(C)C)C(=O)O)O[C@@H](C(N)=O)[C@@](C)(O)[C@@H]3OC(N)=O)O[C@H]2CO[C@@H]2O[C@@H](CO)[C@@H](O)[C@H](O)[C@@H]2O)O[C@@H](C)[C@@H](O[C@@H]2O[C@@H](C(=O)NC3=C(O)CCC3=O)[C@H](O)[C@H](O)[C@@H]2O)[C@@H]1O (stereo partly specified) | 0.31 µg/mL (≈ 0.195 µM) | 0.78 µg/mL (≈ 0.49 µM) | 0.25 µg/mL (≈ 0.157 µM) |  | 8.1 nM | 0.25 µg/mL (≈ 0.157 µM) | > 25 µg/mL | > 700000 nM |  | 0.25 µg/mL (≈ 0.157 µM) | 98 nM | 0.16 µg/mL (≈ 0.1 µM) | 62% | 141% | 0.08 µg/mL (≈ 0.0502 µM) | 0.33% | 0.31 µg/mL (≈ 0.195 µM) | 
3 | CC(=O)N[C@@H]1[C@H](O[C@H]2[C@@H](O)[C@H](NC(C)=O)[C@H](O[C@@H]3[C@@H](OP(=O)(O)OC[C@@H](OCCC(C)CCCCC(C)(C)CCC(C)CCC(C)CCCC(C)C)C(=O)O)O[C@@H](C(N)=O)[C@@](C)(O)[C@@H]3OC(N)=O)O[C@H]2CO[C@@H]2O[C@@H](CO)[C@@H](O)[C@H](O)[C@@H]2O)O[C@@H](C)[C@@H](O[C@@H]2O[C@@H](C(N)=O)[C@H](O)[C@H](O)[C@@H]2O)[C@@H]1O (stereo partly specified) | 0.08 µg/mL (≈ 0.0535 µM) | 0.39 µg/mL (≈ 0.261 µM) | 0.25 µg/mL (≈ 0.167 µM) |  | 8.6 nM | 0.25 µg/mL (≈ 0.167 µM) | > 25 µg/mL | > 700000 nM | 0.16 µg/mL (≈ 0.107 µM) | 0.25 µg/mL (≈ 0.167 µM) | 87 nM | 0.08 µg/mL (≈ 0.0535 µM) | 61% | 176% | 0.16 µg/mL (≈ 0.107 µM) | 0.4% |  | 
4 | CN[C@H](CC(C)C)C(=O)N[C@H]1C(=O)N[C@@H](CC(N)=O)C(=O)N[C@H]2C(=O)N[C@H]3C(=O)N[C@H](C(=O)N[C@H](C(=O)O)c4cc(O)cc(O)c4-c4cc3ccc4O)[C@H](O)c3ccc(c(Cl)c3)Oc3cc2cc(c3O[C@@H]2O[C@H](CO)[C@@H](O)[C@H](O)[C@H]2O[C@H]2C[C@](C)(N)[C@H](O)[C@H](C)O2)Oc2ccc(cc2Cl)[C@H]1O [VANCOMYCIN] | 0.78 µg/mL (≈ 0.538 µM) | > 1250 µg/mL | 25 µg/mL (≈ 17.3 µM) |  | 3700 nM | 0.78 µg/mL (≈ 0.538 µM) | 0.39 µg/mL (≈ 0.269 µM) | 2600 nM |  | 1250 µg/mL (≈ 863 µM) | 4500 nM |  |  |  | 3.12 µg/mL (≈ 2.15 µM) |  |  | 
5 | CC(=O)NC1C(OC2C(OP(=O)(O)OC[C@@H](OCCC(C)CCCCC(C)(C)CCC(C)CCC(C)CCCC(C)C)C(=O)O)OC(C(N)=O)C(C)(O)C2OC(N)=O)OC(CO)C(O)C1O (stereo partly specified) | > 100 µg/mL | > 100 µg/mL | > 100 µg/mL |  | 33 nM |  | > 100 µg/mL |  |  | > 100 µg/mL | 241 nM | > 100 µg/mL |  |  | > 100 µg/mL |  | > 100 µg/mL | Not Active
6 | CC(=O)NC1C(OC2C(CO)OC(OC3C(OP(=O)(O)OC[C@@H](OCCC(C)CCCCC(C)(C)CCC(C)CCC(C)CCCC(C)C)C(=O)O)OC(C(N)=O)C(C)(O)C3OC(N)=O)C(NC(C)=O)C2O)OC(C)C(O)C1O (stereo partly specified) | 0.31 µg/mL (≈ 0.267 µM) | 1.56 µg/mL (≈ 1.35 µM) | 1.56 µg/mL (≈ 1.35 µM) |  | 16 nM | 1.56 µg/mL (≈ 1.35 µM) | 25 µg/mL (≈ 21.6 µM) | 50400 nM | 0.53 µg/mL (≈ 0.457 µM) | 1.56 µg/mL (≈ 1.35 µM) | 131 nM | 0.63 µg/mL (≈ 0.543 µM) | 0.035% | 147% | 0.78 µg/mL (≈ 0.673 µM) | 0.022% |  | 
7 | C=C(C/C=C(\C)CCC=C(C)C)CCC(C)(C)/C=C/CC/C(C)=C\CO[C@H](COP(=O)(O)O[C@H]1O[C@@H](C(N)=O)[C@@](C)(O)[C@H](OC(N)=O)[C@@H]1O[C@@H]1O[C@@H](CO[C@@H]2O[C@@H](CO)[C@@H](O)[C@H](O)[C@@H]2O)[C@@H](O[C@@H]2O[C@@H](C)[C@@H](O[C@@H]3O[C@@H](C(=O)NC4=C(O)CCC4=O)[C@H](O)[C@H](O)[C@@H]3O)[C@H](O)[C@@H]2NC(C)=O)[C@@H](O)[C@@H]1NC(C)=O)C(=O)O [MOENOMYCIN] | 0.025 µg/mL (≈ 0.0158 µM) | 0.25 µg/mL (≈ 0.158 µM) | 0.06 µg/mL (≈ 0.0379 µM) |  | 15.6 nM | 0.78 µg/mL (≈ 0.493 µM) | > 200 µg/mL | > 700000 nM | 0.025 µg/mL (≈ 0.0158 µM) | 0.13 µg/mL (≈ 0.0821 µM) | 31 nM | 0.05 µg/mL (≈ 0.0316 µM) | 125% | 143% | 0.078 µg/mL (≈ 0.0493 µM) | 0.48% |  | 

Source: ChEMBL document CHEMBL1132768, “Differential antibacterial activity of moenomycin analogues on gram-positive bacteria” (Bioorg Med Chem Lett, 2000)
